pIC50: −log10 of the molar value. Like-named read-outs stand apart in the source and are kept apart here.

Here are results for 5 compounds from patent US20080269237A1, “CARBAMIC ACID COMPOUNDS COMPRISING A PIPERAZINE LINKAGE AS HDAC INHIBITORS” (TOPOTARGET UK LIMITED, priority 2002, published 2008).

Data set [1] deals with JURKAT (human T-cell line). The data set is described as follows: Secondary assay: cell proliferation inhibition WST-1, Jurkat. The data set is classed as cell-based. The following applies: 48 h, read-out: Cell Proliferation Inhibition WST-1 (IC50 unless otherwise specified) Jurkat.
Data set [2] relates to K11 (HPV E7 transformed human keratinocyte line). The data set is described as follows: Secondary assay: cell proliferation inhibition WST-1, K11. Type of data set: cell-based. The following applies: 48 h, read-out: Cell Proliferation Inhibition WST-1 (IC50 unless otherwise specified) K11. The source says:
(§1) Compounds with HDAC inhibition activity, as determined using the primary assay, were subsequently evaluated using secondary cell-based assays. The following cell lines were used:
(§2) HeLa—Human cervical adenocarcinoma cell line (ATCC ref. No. CCL-2). K11—HPV E7 transformed human keratinocyte line provided by Pidder Jansen-Duerr, Institut für Biomedizinische Altemsforschung, Innsbruck, Austria. NHEK-Ad—Primary human adult keratinocyte line (Cambrex Corp., East Rutherford, N.J., USA).
(§3) Cells were plated in 96-well plates at 3-10×10^3 cells/well in 100 μL of culture medium. The following day, different concentrations of candidate compounds were added and the cells incubated at 37° C. for 48 h. Subsequently, 10 μL/well of WST-1 reagent was added and the cells reincubated for 1 hour. After the incubation time, absorbance was measured.
(§4) WST-1 is a tetrazolium salt which is cleaved to formazan dye by cellular enzymes. An expansion in the number of viable cells results in an increase in the overall activity of mitochondrial dehydrogenases in the sample. This augmentation in the enzyme activity leads to an increase in the amount of formazan dye formed, which directly correlates to the number of metabolically active cells in the culture. The formazan dye produced is quantified by a scanning multiwell spectrophotometer by measuring the absorbance of the dye solution at 450 nm wavelength (reference wavelength 690 nm).
(§5) Percent activity (% activity) in reducing the number of viable cells was calculated for each test compound as:
(§6) % activity={(S^C−B)/(S^o−B)}×100
(§7) IC50 values were calculated using the software package Prism 3.0 (GraphPad Software Inc., San Diego, Calif.), setting top value at 100 and bottom value at 0.
For orientation: Tetrazolium assays rely on reduction of a dye to a coloured formazan, in cell work by metabolically active cells.

For data set [3], the system named is NHEK-Ad (primary human adult keratinocyte line). The data set is described as follows: Secondary assay: cell proliferation inhibition WST-1, NHEK-Ad. The note with it: 48 h, read-out: Cell Proliferation Inhibition WST-1 (IC50 unless otherwise specified) NHEK-AD. Type of data set: cell-based.
From the text: as §1, §2, §3
WST-1 is a tetrazolium salt which is cleaved to formazan dye by cellular enzymes. […] The formazan dye produced is quantified by a scanning multiwell spectrophotometer by measuring the absorbance of the dye solution at 450 nm wavelength (reference wavelength 690 nm).
Percent activity (% activity) in reducing the number of viable cells was calculated for each test compound as: […]
as §7

The subject of another data set is HDAC (HeLa cell extract). The data set is described as follows: Primary assay: deacetylase activity, HeLa cell extract as source of HDAC. The data set is classed as biochemical, human. The note with it: for pIC50: read-out: HDAC Inhibition (IC50 unless otherwise specified) HeLa. The protocol:
Decreased activity indicates increased inhibition by the test compound.
Alternatively, the activity of the compounds as HDAC inhibitors was determined using a commercially available fluorescent assay kit: (Fluor de Lys™, BioMol Research Labs, Inc., Plymouth Meeting, USA).
Extensive comparative studies have shown that Primary Assay (1) and Primary Assay (2), discussed above, yield equivalent results. Primary Assay results reported herein are (a) exclusively from (1); (b) exclusively from (2); or (c) from both (1) and (2).
The HeLa cell extract was made from HeLa cells (ATCC Ref. No. CCL-2) by freeze-thawing three times in 60 mM TrisCl pH 8.0, 450 mM NaCl, 30% glycerol. Two cell volumes of extraction buffer were used, and particulate material was centrifuged out (20800 g, 4° C., 10 min). The supernatant extract having deacetylase activity was aliquoted and frozen for storage.
as §6

The next data set relates to HeLa cells. The data set is described as follows: Secondary assay: cell proliferation inhibition WST-1, HeLa. The data set is classed as cell-based. The following applies: Homo sapiens, 48 h, read-out: Cell Proliferation Inhibition WST-1 (IC50 unless otherwise specified) HeLa.
From the text: as §1, §2, §3, §4, §5, §6, §7

A further data set concerns the target mouse HDAC2 (Mus musculus, UniProt P70288). Kind of data set: biochemical. The source says:
Briefly, this assay relies on the release of radioactive acetate from a radioactively labelled histone fragment by the action of HDAC enzyme. Test compounds, which inhibit HDAC, reduce the yield of radioactive acetate. Signal (e.g., scintillation counts) measured in the presence and absence of a test compound provide an indication of that compound's ability to inhibit HDAC activity. Decreased activity indicates increased inhibition by the test compound. […]
After purification of the radiolabelled histone fragment, it was incubated with a source of HDAC (e.g., an extract of HeLa cells (a rich source of HDAC), recombinantly produced HDAC1 or HDAC2) and any released acetate was extracted into an organic phase and quantitatively determined using scintillation counting. By including a test compound with the source of HDAC, that compound's ability to inhibit the HDAC was determined. […]
A source of HDAC (e.g., 2 μL of crude HeLa extract, 5 μL of HDAC1 or HDAC2; in elution buffer, as above) was incubated with 3 μL of radioactively labelled peptide along with appropriate dilutions of candidate compounds (1.5 μL) in a total volume of 150 μL of buffer (20 mM Tris pH 7.4, 10% glycerol). […] Radioactivity was measured using a Tri-Carb 2100TR Liquid Scintillation Analyzer (Packard). […]

[4] abbreviates: Homo sapiens, Keratinocyte, K11.

Sequence of mouse HDAC2 (P70288 whole entry, the tested form may be a part): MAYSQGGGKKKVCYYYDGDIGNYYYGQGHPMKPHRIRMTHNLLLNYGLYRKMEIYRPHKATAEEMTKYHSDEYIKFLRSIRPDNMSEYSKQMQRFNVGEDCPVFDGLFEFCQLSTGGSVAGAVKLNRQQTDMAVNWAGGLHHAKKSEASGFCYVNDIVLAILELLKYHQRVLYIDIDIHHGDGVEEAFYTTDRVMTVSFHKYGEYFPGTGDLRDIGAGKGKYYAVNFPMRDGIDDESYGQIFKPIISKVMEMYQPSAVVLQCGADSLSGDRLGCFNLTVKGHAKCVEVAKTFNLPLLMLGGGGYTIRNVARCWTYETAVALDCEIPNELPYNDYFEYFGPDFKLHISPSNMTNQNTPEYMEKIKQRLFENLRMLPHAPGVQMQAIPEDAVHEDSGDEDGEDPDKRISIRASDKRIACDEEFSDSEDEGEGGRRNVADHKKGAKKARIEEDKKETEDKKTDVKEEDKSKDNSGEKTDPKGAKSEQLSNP

Take `Nc1ccccc1NC(=O)c1ccc(CNC(=O)OCc2cccnc2)cc1` [MS-275, reference compound]: the pIC50 in data set [1] was 6.44; in data set [2] (K11), 5.04; in data set [3] (NHEK-AD), 5.51.
`O=C(CCCCCCC(=O)N1CCN(C(c2ccccc2)c2ccccc2)CC1)NO` [PX117764] gave a melting point of 126 to 129 °C. For the same compound, the pIC50 in data set [1] (Homo sapiens) was 5.57. Also, the pIC50 in data set [2] (setting [4]) was 5.02. Also, the pIC50 with HDAC (HeLa cell extract) is 6.11. The pIC50 in the data set on HeLa cells was 4.53.
For `COc1ccccc1N1CCN(C(=O)CCCCCCC(=O)NO)CC1` [PX117768, 8-[4-(2-Methoxy-phenyl)-piperazin-1-yl]-8-oxo-octanoic acid hydroxyamide] the same measures were 135 to 137 °C, 5.98, 5.06, 6.76 and 5.48.
Turning to `O=C(/C=C/c1cccc(S(=O)(=O)N2CCN(c3ccccc3)CC2)c1)NO` [PX118490, (E)-N-Hydroxy-3-{3-[(4-phenyl-1-piperazinyl)sulfonyl]phenyl}-2-propenamide], the pIC50 in data set [1] (Homo sapiens) is 6.34; in data set [2] (setting [4]) it was 5.60; with HeLa cells, 6.00. The “HDAC Inhibition HeLa, % @ 100 nM” value in the data set with HDAC (HeLa cell extract) (100 nM compound) came to 59% @ 100 nM.
As to `CC(/C=C/C(=O)NO)=C\[C@@H](C)C(=O)c1ccc(N(C)C)cc1` [TSA, Trichostatin A, reference compound], the pIC50 in data set [1] (Homo sapiens) was 7.38; in data set [2] (Homo sapiens, Keratinocyte), 6.42; at mouse HDAC2, 7.77; in data set [3] (Homo sapiens, Keratinocyte), 6.70; in the data set on HeLa cells, 6.46.

Usually melting point stands for the temperature of the solid-liquid transition.
